# Test results reported in patent US8193200B2, “Antagonists of A2B adenosine receptors for treatment of inflammatory bowel disease” (University of Virginia Patent Foundation, priority 2007, dated 2012).
# Key:
# [1] = system: colonic crypt epithelial cells; experiment: ki67 proliferation and caspase-3/TUNEL apoptosis staining of colonic crypts, DSS colitis; format: in vivo, mouse
# Procedure: Apoptosis: Apoptotic cells were determined in colonic crypts of the mice that received ATL-801. Apoptotic cells were identified by fluorescent double staining using caspase-3 and terminal deoxyuridine nick-end labeling (TUNEL) as a secondary method to detect apoptosis. After deparaffinization and hydration, paraffin sections of colon were retrieved for antigens in a pressure cooker with sodium citrate (pH 6.0, 10 mM) for 10 min. After cooling, the sections were quenched in 3% H2O2 in methanol and then blocked with normal goat serum. Caspase-3 was detected with rabbit anti-cleaved-caspase-3 IgG overnight at 4° C. followed by a labeled streptavidin-biotin (LSAB) staining method consisting of successive application of secondary antibody-streptavidin, biotin-horseradish peroxidase, and cyanine-3 tyramide. TUNEL immunohistochemistry was performed using the in situ cell death detection kit, fluorescein, as described by the manufacturer (Roche Applied Science, Indianapolis, Ind.). For IL-10 model, frozen sections were used to stain cleaved caspase 3 and TUNEL. Nuclei were attained by Hoechst to count total crypt cell number. The apoptotic index for both morphologically defined apoptotic cells and fluorescent staining with caspase-3 was calculated as the number of apoptotic cells per crypt. […]
# T84 cells = experiment: Flagellin-induced IL-8 secretion in T84 cells (ELISA); format: cell-based
# A2b receptor expression = experiment: Western blot of A2b receptor in colonic lysates, DSS model; format: in vivo, mouse; settings: baseline and after DSS treatment
# Excerpt: Colonic tissue was homogenized and cell lysates were subjected to immunoblotting using anti-A2b receptor antibody (1:1000). β-tubulin was used as loading control. Blot shown is representative of 4 animals per condition.
# [2] = system: IL-10-/- mice with piroxicam induced colitis; experiment: Piroxicam induced colitis in IL-10-/- mice: body weight, histological score, colon length; format: in vivo, mouse
# Excerpt: IL-10^−/− mice spontaneously develop a chronic, T-cell mediated, transmural colitis that shares many features with human Crohn's disease. Based on this model, there have been several clinical trials using IL-10 treatment for IBD in human patients 13 However, due to the inconsistency in the development of spontaneous colitis in IL-10^−/− mice, Berg and his colleagues have described rapid development of colitis in IL-10^−/− mice treated with a nonsteroidal anti-inflammatory drug piroxicam (NSAID)^9. Accordingly, mice were treated with piroxicam, 200 mg/kg diet, for two weeks to induce colitis. Mice were administered ATL-801 for a week prior to treatment with piroxicam, and ATL-801 treatment was continued during piroxicam administration. Two weeks after the induction of colitis, mice were euthanized, and colonic tissue was analyzed.
# Assessment of body weights, stool consistency, and the presence of occult/gross blood by a guaic test (Hemoccult Sensa; Beckman Coulter, Fullerton, Calif.) were performed daily for each mouse. Colitis was quantified with a clinical and histological score, as described by Cooper, et. al. Clinical score was based on weight loss, stool consistency, and fecal blood (score range 0-12). Histological scoring was performed based on three variables, extent of inflammatory infiltrate, mucosal ulcers and severity of crypt (score range 0-11). IL-10^−/− mouse colon histological scoring (ranging from 0 to 4) was performed as described by Berg, et. al. to assess intestinal lesions and their severity.
# IL-6 and KC secretion = experiment: IL-6 and KC ELISA in colon organ culture supernatants, IL-10-/- model; format: in vivo, mouse
# Procedure: In the DSS-model proinflammatory cytokines were measured by real time PCR. Total RNA was extracted from DSS treated, DSS+ATL-801 and control colonic tissue using the TRizol reagent. After quantification, a reverse transcription (RT) reaction was performed with 2 μg of each sample and oligo-dT primer, using the SuperScript First strand synthesis system for RT-PCR (Invitrogen, CA). The real-time iCycler sequence detection system (Bio-Rad) was used for the real-time RT-PCR. Briefly, 3 ng of reverse transcribed cDNA, 500 nM of gene-specific primers and the iQ SYBR Green Supermix (Biorad, Hercules, Calif.) were amplified at 50° C. for 2 min and 95° C. for 10 min, followed by 40 cycles of 95° C. for 15 s and 60° C. for 1 min. The 36B4 expression levels were used as reference, and fold-induction was calculated using a standard curve. For graphical representation of quantitative PCR data, raw cycle threshold values (Ct values) obtained for treated mice were deducted from the Ct value obtained for internal 36B4 transcript levels, using the Ct method as follows: ΔΔCT=(Ct Target−Ct 36B4)treatment−(Ct Target−Ct 36B4) no treatment, and the final data were derived from 2^−ΔΔCT. Primers used: IL-6 sense 5′-ACAAGTCGGAGGCTTAATTACACAT-3′ (SEQ ID NO:1) antisense 5′-TTGCCATTGCACAACTCTTTTC-3′ (SEQ ID NO:2), MIP-2 sense 5AGT GAA CTG CGC TGT CAA TGC-3′ (SEQ ID NO:3) antisense 5′ AGGCAAACTTTTTGACCGCC 3′ (SEQ ID NO:4). In IL-10−/− model proinflammatory cytokines were measured by ELISA in organ cultures. Colon organ cultures were prepared from IL-10^−/− mice with and with out ATL-801 along with piroxicam. Colons were dissected from mice and flushed with cold PBS to remove fecal matter. Each colon was cut in to 1 cm length and washed in HBSS with pencillin/streptomycin and cultured in serum free RPMI-1640 supplemented with penicillin and streptomycin. […] Supernatants were harvested after 24 hours, centrifuged and stored at −80° C. before IL-6 and keratinocyte derived chemokine, KC levels were measured by ELISA. […] IL-8 was measured in the supernatants by ELISA.
# [3] = system: myeloperoxidase (MPO) activity, neutrophil infiltration into colon; experiment: Myeloperoxidase assay in colon, DSS colitis; format: in vivo, mouse; settings: DSS 3% 6 days, ATL-801 10 mg/kg in diet
# Procedure: Neutrophil infiltration into colon was quantified by measuring myeloperoxidase (MPO) activity as described previously. One unit of MPO activity was defined as the amount that degraded 1 μmol of […] per minute at 25° C. The results were expressed as absorbance per μg of protein.
structure (smiles),measurement,setting,value
CCCn1c(=O)n(C2CC2)c(=O)c2[nH]c(-c3ccc(N(CC)C(=O)c4cccnc4)nc3)nc21 [ATL-801],"proliferation index, ki67 positive cells","[1]; DSS+ATL, average positive cells per crypt, control 18.67±1.62, DSS 5.95±0.31",15.13±0.44
same,TUNEL positive cells out of total number of cells counted in each crypt,"[1]; DSS+ATL-801, DSS 16.3±2.3",3.7±0.7
same,inhibition of flagellin-induced IL-8 secretion,"T84 cells; ATL-801 100 μM 30 min, then flagellin 100 ng/ml 5 hours",60%
same,"IL-8 in media, Flagellin+ATL-801","T84 cells; ATL-801 100 μM, flagellin 100 ng/ml 5 h, control 206±18.5, flagellin 1126",769 ± 13.6 pg/mL
same,"IL-8 in media, ATL-801 alone","T84 cells; ATL-801 100 μM, no flagellin, control 206±18.5",101 ± 34.6 pg/mL
same,effect on A2b receptor expression (Western blot),A2b receptor expression,affected neither baseline level of A2b receptor nor DSS-induced increase in A2b receptor expression
same,"histology, ATL-801 alone",[2]; IL-10-/- mice treated with ATL-801 alone (data not shown),normal histology
same,colon length,"[2]; IL-10-/- mice, ATL-801+piroxicam, piroxicam 7.0±0.25 cm",8.4±0.23 cm
same,mean histological score,"[2]; IL-10-/- mice, piroxicam + ATL-801, score 0 to 4, piroxicam 2.8±1.0",1.3±0.3
same,body weight change (Δ),"[2]; IL-10-/- mice, piroxicam+ATL-801 10 mg/Kg diet, FIG. 8A percent body weight change, piroxicam Δ−2.05±0.7",+0.2±0.5
same,effect of ATL-801 alone on IL-6 or IL-8 levels,IL-6 and KC secretion; ATL-801 alone (data not shown),no effect
same,IL-6 levels in colon culture supernatant,"IL-6 and KC secretion; IL-10-/- mice, piroxicam + ATL-801, 24 h culture, piroxicam alone 1.9±0.3, untreated 0.7±0.1",0.46 ± 0.1 ng/mL
same,KC secretion in colon culture supernatant,"IL-6 and KC secretion; IL-10-/- mice, piroxicam+ATL-801, piroxicam alone 5.6±0.6",3.7 ± 0.8 ng/mL
same,"MPO activity, DSS alone relative to antagonist and DSS",[3],5 fold
